# Test results from patent US20050053921A1, “Systems for screening anti-hepatitis drugs” (priority 2003, published 2005).
# B1: IFN-γ: IFN-γ, known anti-HCV compound (Frese et al., 2002) (protein, UniProt P01579 24-161, looked up)
# Interferon gamma: QDPYVKEAENLKKYFNAGHSDVADNGTLFLGILKNWKEESDRKIMQSQIVSFYFKLFKNFKDDQSIQKSVETIKEDMNVKFFNSNKKKRDDFEKLTNYSVTDLNVQRKAIHELIQVMAELSPAAKTGKRKRSQMLFRG
# Legend:
# NS3/4A protease = NS3/4A protease (Hepatitis C virus genotype 1a, UniProt P27958); experiment: cell-based; set-up: species or system HCV type 1a
# Chain of NS3/4A protease (P27958 1027-1657): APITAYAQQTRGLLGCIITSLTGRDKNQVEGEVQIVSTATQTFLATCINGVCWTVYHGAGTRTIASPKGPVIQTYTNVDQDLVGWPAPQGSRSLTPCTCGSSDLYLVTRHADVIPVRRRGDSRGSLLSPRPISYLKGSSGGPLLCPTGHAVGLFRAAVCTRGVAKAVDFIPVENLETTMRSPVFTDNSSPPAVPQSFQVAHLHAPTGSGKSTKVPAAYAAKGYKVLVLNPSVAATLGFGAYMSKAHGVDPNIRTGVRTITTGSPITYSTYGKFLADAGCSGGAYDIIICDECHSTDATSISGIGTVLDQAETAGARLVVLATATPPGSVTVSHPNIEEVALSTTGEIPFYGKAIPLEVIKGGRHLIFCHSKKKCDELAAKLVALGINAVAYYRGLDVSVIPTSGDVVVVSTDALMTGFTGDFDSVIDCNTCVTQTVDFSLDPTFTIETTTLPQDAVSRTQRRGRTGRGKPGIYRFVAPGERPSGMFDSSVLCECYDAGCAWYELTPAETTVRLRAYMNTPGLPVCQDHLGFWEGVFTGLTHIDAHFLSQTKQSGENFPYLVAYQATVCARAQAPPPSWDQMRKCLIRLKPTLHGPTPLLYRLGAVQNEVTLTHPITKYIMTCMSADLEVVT
# Chain of NS3/4A protease (P27958 1658-1711): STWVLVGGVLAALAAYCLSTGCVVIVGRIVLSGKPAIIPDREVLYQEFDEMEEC
# Method: One of the cloned cell lines was further infected with the lentiviral vector encoding NS 3/4A gene. After zeocin selection (250 μg/ml) for 3 to 4 weeks, one zoscine-resistant clone was obtained. This cell line was confirmed by Western blot to express both NS3/4A protease and EG(D4AB)SEAP, and therefore designated as 293P-EG(Δ4AB)SEAP-NS3/4A.
# More specifically, 293P-EG(Δ4AB)SEAP-NS3/4A cells were seeded in 96-well plates (1.5×10^4 cells per well) and cultured at 37° C. overnight. […] Two days later, the culture medium in each well was replaced with fresh phenol red-free DMEM/10% FBS containing the same concentration of drugs. After another day, the culture medium was collected and the SEAP activity was measured using a Phospha-Light assay kit (Tropix, Foster City, Calif., USA) according to manufacturer's instruction.
# [1] = system: 293P-EG(Δ4AB)SEAP-NS3/4A cells; experiment: MTS cellular toxicity assay; format: cell-based; conditions: concentration up to 10 μM
# [2] = biological target: T1, NS3/4A protease in Ava5-EG(Δ4AB)SEAP cells (Hepatitis C virus genotype 1b, UniProt Q9WMX2); experiment: SEAP activity in medium of stable Ava5-EG(Δ4AB)SEAP cells; format: cell-based, HCV; conditions: for extracellular SEAP activity: TPCK 0-40 μM or IFN-γ 0-100 I.U./ml
# T1 construct: Ava5 cells expressed endogenous NS3/4A protease; endogenous in cells; host or cells: Ava5 cells (Huh-7 carrying an HCV subgenomic replicon)
# T1 sequence (Q9WMX2 1027-1657, stated change not applied): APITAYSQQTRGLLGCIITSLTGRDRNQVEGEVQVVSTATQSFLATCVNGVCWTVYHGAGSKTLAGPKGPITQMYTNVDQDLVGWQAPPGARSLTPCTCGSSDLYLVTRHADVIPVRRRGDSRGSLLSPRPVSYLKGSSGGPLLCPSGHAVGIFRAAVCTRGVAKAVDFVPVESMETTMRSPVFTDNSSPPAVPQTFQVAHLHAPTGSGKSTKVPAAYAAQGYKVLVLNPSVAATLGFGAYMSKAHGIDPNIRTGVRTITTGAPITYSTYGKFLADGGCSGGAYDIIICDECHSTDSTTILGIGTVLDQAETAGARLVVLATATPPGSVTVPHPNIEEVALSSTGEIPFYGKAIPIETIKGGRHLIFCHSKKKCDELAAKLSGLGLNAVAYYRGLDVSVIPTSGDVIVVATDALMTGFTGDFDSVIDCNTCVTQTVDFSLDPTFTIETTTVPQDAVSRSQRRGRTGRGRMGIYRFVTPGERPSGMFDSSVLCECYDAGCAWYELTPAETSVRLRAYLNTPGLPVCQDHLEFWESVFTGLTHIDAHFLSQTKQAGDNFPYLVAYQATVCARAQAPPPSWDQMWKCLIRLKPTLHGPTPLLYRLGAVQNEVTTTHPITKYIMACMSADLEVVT
# T1 sequence (Q9WMX2 1658-1711, stated change not applied): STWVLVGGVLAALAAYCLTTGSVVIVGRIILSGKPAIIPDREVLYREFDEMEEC
# Method: (§1) After the cotransfection, culture media and cell lysates were harvested at 12-hour intervals. The SEAP activity in the culture medium and the β-galactosidase activity in the cell lysates were measured using Phospha-Light and Galacto-Star assay kits (Tropix, Foster, Calif., USA), respectively. The respective chemiluminescent intensities were detected by a Top Counter Microplate Scintillation and Luminescence Counter (Packard, Meriden, Conn., USA). The intensities reflected the relative activities of SEAP and […]. In these experiments, the β-gal activity was used to normalize transfection efficiency according standard techniques. Meanwhile, fluorescence emitted from the green fluorescent protein was examined using a fluorescence microscope (Nikon DIAPHOT 300).
# Huh-7 or Ava5 cells were seeded in 24-well plates at a density of 2×10^4 cells per well. After incubation at 37° C. overnight, the cells were transduced with serial dilutions of lentiviral particles in the presence of 6 μg/ml polybrene (Sigma, St. Louis, Mo., USA) in the manner described above. After incubation for 24 hours, the virus-containing medium was replaced by a fresh medium and the cells were incubated for another 2 days. The cells were then selected in the presence of 10 μg/ml of blasticidin for 3-4 weeks.
# One blasticidin-resistant Huh-7 clone and two blasticidin-resistant Ava5 clones were obtained. Cell lines thus produced were designated as Huh-7-EG(Δ4AB)SEAP and […], respectively. The cells were then examined for expression of EG(Δ4AB)SEAP and the amount NS3 protein by Western blot analysis using anti-EGFP antibody and anti-NS3 antibody, respectively. […] They also expressed free EGFP, resulting from the cleavage of the EG(Δ4AB)SEAP by NS3/4A protease. In naive Huh-7 and Ava5 cells, neither free EGFP nor NS3 could be detected.
# (§2) Ava5-EG(Δ4AB)SEAP clone 1 was further treated by IFN-α (0-50 units/ml) in the manner described above. They, the cells were examined for cellular NS3/4A protein and HCV RNA levels by western blot and dot blot, respectively. The dot blot was conducted as follows: RNA was extracted using TRIZOL reagent (Invitrogen). Three micrograms of RNA was dissolved in 100 μl of TE buffer (10 mM Tris-HCl, 1 mM EDTA, pH 7.5) and 60 μl of 20×SSC, and 40 μl of 37% formaldehyde stock solution were added. The samples were incubated at 60° C. for 15 min and then applied to pre-wetted nylon membrane using an S&S Minifold® I dot-blot device (Schleicher & Schuell GmbH, Relliehausen, Germany). Each well was washed twice with 6×SSC. Bound RNA was immobilized onto the membrane by UV-cross linking (Stratagene, La Jolla, Calif., USA) under the autocross-link condition, then hybridization and counting were conducted as described (Lee et al., 2003. Anal. Biochem.316, 162-170a). The membrane was probed with NS5B gene fragment of HCV labeled with […] by rediprime II random primer labeling system (Amersham Biosciences, Buckinghamshire, England). The blots were visualized by autoradiography and intensities of the blots were measured by densitometry (UVP GDS-8000 BioImaging System, Upland, Calif., USA).
# The just-described cell line was used to examined several other known anti-HCV compounds, such as an NS3/4A inhibitor, N-tosyl-1-phenylalanine chloromethyl ketone (TPCK) (Berdichevsky et al., 2003, J. Virol. Methods 107, 245-255.), and IFN-γ (Frese et al., 2002, Hepatology 35, 694-703.). […]
# NS3/4A protein = experiment: Cellular NS3/4A protein level by western blot in Ava5-EG(Δ4AB)SEAP clone 1; format: cell-based, HCV; conditions: 0-50 units/ml
# Chain of NS3/4A protein (Q9WMX2 1027-1657): as the sequence (Q9WMX2 1027-1657, stated change not applied) above
# Method: as §2
# HCV NS3 protease = conditions: 100 IU/ml, Ava5 cells, especially after 3 days of treatment
# Chain of HCV NS3 protease (Q9WMX2 1027-1657): as the sequence (Q9WMX2 1027-1657, stated change not applied) above
# Method: They were maintained in DMEM/10% FBS/1 mg/ml G418 (Geneticin) and DMEM/10% FBS, respectively. Ava5 cells expressed endogenous NS3/4A protease. The above-described dual-reporter construct was transient transfected into the cells in the same manner descried above except that FuGENE 6 (Roche), instead of LipofectamineTM was used. Western blotting was also conducted in the same manner.
# Ava5 cells expressing EG(Δ4AB)SEAP were then tested for the ability to screen for HCV protease inhibitors. More specifically, the cells were treated with IFN-α (Schering-Plough Corp., Kenilworth, N.J., USA) and examined for the SEAP activity in their medium in the manner described above.
# The protein level of NS3 protease was also determined by standard techniques.
# HCV RNA = HCV RNA level by dot blot in Ava5-EG(Δ4AB)SEAP clone 1; format: cell-based; conditions: 0-50 units/ml
# Method: as §2
# [3] = system: HCV subgenomic replicons (HCV RNA); experiment: HCV RNA level by Northern hybridization in Ava5 cells expressing EG(Δ4AB)SEAP; format: cell-based; conditions: 100 IU/ml
# [4] = system: endogenous NS3/4A protease in Ava5 cells; experiment: SEAP activity in medium of Ava5 cells transiently transfected with EG(Δ4AB)SEAP; format: cell-based, HCV; conditions: 100 IU/ml
# Chain of endogenous NS3/4A protease in Ava5 cells (Q9WMX2 1027-1657): as the sequence (Q9WMX2 1027-1657, stated change not applied) above
# Method: as §1
# Ava5 cells expressed endogenous NS3/4A protease. […] Western blotting was also conducted in the same manner.
# [5] = Ava5-EG(Δ4AB)SEAP cells, 72 hours
molecule,measurement,setting,value
COc1ccc2c(O[C@@H]3C[C@H]4C(=O)N[C@]5(C(=O)O)C[C@H]5/C=C\CCCCC[C@H](NC(=O)OC5CCCC5)C(=O)N4C3)cc(-c3csc(NC(C)C)n3)nc2c1 [BILN-2061],EC50,NS3/4A protease,~2 nM
same,cellular toxicity as measured by MTS assay,[1],did not cause detectable cellular toxicity
"Cc1ccc(S(=O)(=O)N[C@@H](Cc2ccccc2)C(=O)CCl)cc1 [TPCK, N-tosyl-1-phenylalanine chloromethyl ketone, reference compound]",extracellular SEAP activity,[2]; [5],dose-dependent decrease
same,suppression of HCV replication,"[2]; at 0.2 μM, Ava5-EG(Δ4AB)SEAP cells, 72 hours",more than 50%
IFN-α,SEAP activity in the culture medium,"[2]; 0-50 units/ml, Ava5-EG(Δ4AB)SEAP clone 1",decreased
same,cellular NS3/4A protein level (western blot),NS3/4A protein,decreased
same,HCV NS3 protease levels,HCV NS3 protease,declined
same,HCV RNA level (dot blot),HCV RNA,decreased
same,RNA levels of gadph (housekeeping gene),[3],remained the same
same,HCV RNA levels,[3]; especially after 3 days of treatment,declined
same,SEAP activity in the culture medium,[4],decreased
B1,extracellular SEAP activity,[2]; [5],repressed
same,EC50 (effective concentration for 50% inhibition),"[2]; extracellular SEAP activity, Ava5-EG(Δ4AB)SEAP cells, 72 hours",below 10 IU/ml
